pIC50: −log10 of the molar value. Structures can show the parent of a compound that is named as a salt.
Target: T1, human renal renin (Homo sapiens, UniProt P00797)
T1 construct: with human renal renin, free from acid proteolytic activity; from tissue; host or cells: human kidney (concluded from the word 'renal')
T1 sequence (P00797 67-406): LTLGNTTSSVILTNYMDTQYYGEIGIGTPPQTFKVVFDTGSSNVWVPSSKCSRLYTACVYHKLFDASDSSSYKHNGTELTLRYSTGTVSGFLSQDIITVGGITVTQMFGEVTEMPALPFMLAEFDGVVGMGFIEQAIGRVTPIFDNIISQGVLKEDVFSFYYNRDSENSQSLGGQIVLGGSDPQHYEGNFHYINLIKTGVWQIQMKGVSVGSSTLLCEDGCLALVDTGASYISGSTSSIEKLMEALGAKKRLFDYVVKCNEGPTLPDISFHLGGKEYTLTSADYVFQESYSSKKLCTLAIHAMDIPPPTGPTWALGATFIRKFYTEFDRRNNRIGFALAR
Assay: in vitro inhibition of human renal renin (angiotensin I formed measured by radioimmunoassay)
Format: biochemical
Settings: human renal renin with renin substrate (human angiotensinogen), 37° C., pH 6.0

Compound	pIC50
CC(C)C[C@H](O)[C@H](O)[C@H](CC1CCCCC1)NC(=O)[C@H](Cc1cnc[nH]1)NC(=O)[C@H](Cc1ccccc1)NC(=O)C(C)(C)CNC(=O)OCc1ccccc1 [Example 81]	9.22
C[C@H](NC(=O)[C@H](Cc1ccccc1)NC(=O)OC(C)(C)C)C(=O)N[C@@H](CC1CCCCC1)C(O)CO (stereo partly drawn) [Example 3, Boc-Phe-Ala Amide of 3(S)-Amino-4-cyclohexyl-1,2(R,S)-dihydroxybutane]	5.40
CCOC(=O)N[C@@H](Cc1ccccc1)C(=O)N(C)[C@@H](Cc1c[nH]cn1)C(=O)N[C@@H](CC1CCCCC1)[C@@H](O)[C@@H](O)CC(C)C [Example 39, Ethoxycarbonyl-Phe-MeHis Amide of 2(S)-Amino-1-cyclohexyl-3(R),4(S)-dihydroxy-6-methylheptane]	8.70
CC(C)C[C@H](O)[C@H](O)[C@H](CC1CCCCC1)NC(=O)[C@H](Cc1c[nH]cn1)NC(=O)[C@H](Cc1ccccc1)NC(=O)C(C)(C)CN [Example 82, [(α, α-Di-Me)-β-Ala]-Phe-His Amide of 2(S)-Amino-1-cyclohexyl-3(R),4(S)-dihydroxy-6-methylheptane Bis acetic acid salt]	9.22

— patent US4845079A, “Peptidylaminodiols” (priority 1988, dated 1989)
